# In patent US6103720A, “Ketobenzamides as calpain inhibitors” (BASF Aktiengesellschaft, priority 1996, dated 2000):
# How the values were obtained:
# [1] = test system: calpain; conditions: M. R. Angelastro et al., J. Med. Chem. 1990,33, 11-13; cited from earlier work
# [2] = target: T1, Human μ-calpain (Homo sapiens, UniProt P07384); assay: Calpain I test (Ki, fluorogenic substrate Suc-Leu-Tyr-AMC); type: biochemical; conditions: human μ-calpain from erythrocytes, reversible inhibition
# T1 construct: Human μ-calpain is isolated from erythrocytes; from tissue; host or cells: human erythrocytes (purified on DEAE Sepharose, phenyl Sepharose, Superdex 200 and Blue Sepharose)
# T1 sequence (P07384 1-714): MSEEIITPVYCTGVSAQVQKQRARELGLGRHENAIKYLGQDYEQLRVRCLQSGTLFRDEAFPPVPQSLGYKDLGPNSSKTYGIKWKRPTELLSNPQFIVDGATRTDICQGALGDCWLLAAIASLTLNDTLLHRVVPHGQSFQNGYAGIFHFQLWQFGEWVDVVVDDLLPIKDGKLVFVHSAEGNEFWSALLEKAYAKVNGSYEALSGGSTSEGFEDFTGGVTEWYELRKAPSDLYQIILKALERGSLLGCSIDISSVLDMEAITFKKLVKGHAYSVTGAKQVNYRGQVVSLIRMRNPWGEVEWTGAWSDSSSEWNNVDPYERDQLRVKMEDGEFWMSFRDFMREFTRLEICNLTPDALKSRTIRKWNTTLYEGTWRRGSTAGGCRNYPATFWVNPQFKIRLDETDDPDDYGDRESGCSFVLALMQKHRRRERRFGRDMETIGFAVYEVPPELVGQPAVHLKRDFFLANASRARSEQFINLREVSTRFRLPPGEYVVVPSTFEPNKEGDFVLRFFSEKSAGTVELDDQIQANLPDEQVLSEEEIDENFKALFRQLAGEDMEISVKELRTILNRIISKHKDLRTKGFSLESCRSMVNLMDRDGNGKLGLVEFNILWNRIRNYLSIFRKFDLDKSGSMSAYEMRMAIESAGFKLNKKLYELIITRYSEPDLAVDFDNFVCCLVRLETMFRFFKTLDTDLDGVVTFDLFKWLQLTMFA
# T1 sequence (P04632 1-268 partner): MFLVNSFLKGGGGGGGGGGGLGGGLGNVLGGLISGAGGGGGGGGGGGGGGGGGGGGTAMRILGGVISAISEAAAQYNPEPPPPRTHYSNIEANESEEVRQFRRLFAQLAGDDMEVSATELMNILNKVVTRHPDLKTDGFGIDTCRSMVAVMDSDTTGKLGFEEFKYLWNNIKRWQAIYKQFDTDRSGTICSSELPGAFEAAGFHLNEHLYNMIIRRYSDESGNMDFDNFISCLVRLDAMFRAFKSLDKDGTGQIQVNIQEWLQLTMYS
# Description: Calpain I and Calpain II Test
# The inhibitory properties of calpain inhibitors are tested in buffer containing 50 mM tris-HCl, pH 7.5; 0.1 M NaCl; 1 mM dithiotreithol [sic]: 0.11 mM CaCl2, using the fluorogenic calpain substrate Suc-Leu-Tyr-AMC (25 mM, dissolved in DMSO, Bachem/Switzerland) (Sasaki et al. J. Biol. Chem. 1984, Vol. 259, 12489-12494). Human μ-calpain is isolated from erythrocytes following the methods of Croall and DeMartino (BBA 1984, Vol. 788, 348-355) and Graybill et al. (Bioorg. & Med. Lett. 1995, Vol. 5, 387-392). After several chromatographic steps (DEAE Sepharose, phenyl Sepharose, Superdex 200 and Blue Sepharose), the enzyme is obtained at a purity of […], as assessed by SDS-PAGE, Western blot analysis and N-terminal sequencing. The fluorescence of the cleavage product 7-amino-4-methylcoumarin (AMC) is followed in a Spex-Fluorolog fluorimeter at λex =380 nm and λem =460 nm. […]
# In a typical experimental mixture, 10 μl of substrate (250 μm final concentration) and then 10 μl of μ-calpain (2 μg/ml final concentration, ie. 18 nM) are added to a 1 ml cuvette which contains buffer. The calpain-mediated cleavage of the substrate is measured for from 15 to 20 min. […] Ki values are determined using the customary equation for reversible inhibition, ie. […]
Ki [2],Compound,inhibitor of calpain (in words) [1]
–,COC(=O)C(=O)C(Cc1ccccc1)NC(=O)c1ccccc1 (centres unmarked) [Ph-CONH--CH(CH2 Ph)--CO--COOCH3],weak inhibitor
< 10 µM,(S)-N-(1-Ethoxycarbonyl-1-oxo-3-phenylpropan-2-yl)-2-phenylbenzamide [Example 24],–
